Measurements as given in patent publication EP1983049B1, “Peptides binding to the Lck-SH3 and Hck-SH3 domains” (Forschungszentrum Jülich GmbH, priority 2005, dated 2006).
Where no end group is shown, it is not given here.

Tests used:
[1] = biological target: T1, GST-Lck-SH3 (Homo sapiens, UniProt P06239); assay: anti-Phage-ELISA, relative Lck-SH3 binding activity of phage clones; conditions: phage-displayed peptide; detection at 450 nm; Fig. 1; 7 single experiments
T1 construct: rekombinant hergestellte Lck SH3 als Fusion mit Glutathion-S-Transferase (GST-Lck-SH3); made in house
Description: Dieser Bindungstest ist ein häufig verwendeter Test zur schnellen Bestimmung relativer Bindungsstarken selektierter Peptide, die hierbei noch physikalisch mit dem Phagen verknüpft vorliegen. Dieser Schritt dient auch zur Eliminierung von (bei dieser Methode nicht selten auftretenden) Phagenvarianten, die z. B. aufgrund ihrer Affinität zur Plastikoberfläche der verwendeten Mikrotiterplatten, angereichert werden und die somit zur Verfälschung der Ergebnisse führen können. Eine grundsätzliche Beschreibung der Methode findet sich z. B. unter Sparks et al. Methods Enzymol. 1995; 255:498-509.
GST-Lck-SH3 Protein wurde in einer Konzentration von 10 µg/ml in Tris-Bis über Nacht bei 4°C in Mikrotiterplatten immobilisiert. Verbleibende Bindungsstellen wurden durch 2-stündige Inkubation mit Blockierungspuffer (Bis-Tris mit 2.% Magermilchpulver) abgesättigt.
In einer anderen Mikrotiterplatte wurden zuerst je 100 µl Suspension der zu testenden Phagenvariante mit 100 µl Blockierungspuffer für 20 Minuten vorinkubiert und erst dann für 1 Stunde zum immobilisierten GST-Lck-SH3 Protein gegeben. Nach einem Waschschritt mit Bis-Tris wurde ein Meerrettich-Peroxidase-konjugierter Antikörper zugegeben und die Platten für eine weitere Stunde inkubiert. […]

[2] = biological target: Abl SH3 Domäne (Homo sapiens, UniProt P00519); assay: Fluorescence titration (intrinsic tryptophan fluorescence), binding constant; conditions: Abl SH3 domain; fluorescence titration, 0,5 µM SH3 domain in PBS, 1mM DDT; each experiment done twice
Description: (§1) Die Messungen wurden im Wesentlichen wie bei Schweimer K, Hoffmann S, Bauer F, Friedrich U, Kardinal C, Feller SM, Biesinger B, Sticht H. Structural investigation of the bindung of a herpesviral protein to the SH3 domain of tyrosine kinase Lck. Biochemistry. 2002 Apr 23;41(16):5120-30 beschrieben unter Verwendung eines Perkin-Elmer LS 55 Fluoreszenzspektrometers bei einer Anregungswellenlänge von 290 nm und einer Emissionswellenlänge von 345 nm durchgeführt. […] Nach PD1-Zugabe wurde jeweils die resultierende Fluoreszenzänderung aufgezeichnet. Durch eine Kontrolltitration (Hintergrundmessung), bei welcher die Peptidlösung gegen Wasser ersetzt wurde, konnten die Abweichungen der Fluoreszenzweite, welche durch eine sinkende SH3-Endkonzentration während der Titration hervorgerufen wurden, ausgeglichen werden. […] F = Fmin + (([Pges] + [Lges] + Kd)/(2)-sqrt(((([Pges]+[Lges]+Kd))^2)/(4)-[Pges]*[Lges]))*((Fmax-Fmin))/(Pges) [formula]
(§2) Durch nichtlineare Regression mit Fmax und Kd als angepasste Parameter konnten die experimentellen Daten an obige Gleichung angepasst werden.

[3] = biological target: Hck-SH3 (Homo sapiens, UniProt P08631); assay: as above; conditions: Hck SH3 domain; fluorescence titration, 0,5 µM SH3 domain in PBS, 1mM DDT; each experiment done twice
Description: as §1, §2

[4] = biological target: T2, Lck-SH3 (Homo sapiens, UniProt P06239); assay: as above; conditions: Lck SH3 domain; fluorescence titration, 0,5 µM free SH3 domain in PBS, 1mM DDT; each experiment done twice
T2 construct: Inkubation der Membran mit dem zu untersuchenden Protein (hier Lck-SH3); made in house
Description: as §1, §2

[5] = biological target: PI3K SH3 Domäne (Homo sapiens, UniProt P27986); assay: as above; conditions: PI3K SH3 domain; fluorescence titration, 0,5 µM SH3 domain in PBS, 1mM DDT; each experiment done twice
Description: as §1, §2

[6] = biological target: T2, Lck-SH3; assay: PepSpot membrane substitution analysis, relative Lck binding activity; conditions: 7 of 12 positions of PD1-R substituted, 0,5 µg/ml SH3 protein, Fig. 4
Description: Eine andere Methode, Protein-Protein-Wechselwirkungen zu untersuchen, ist die Benutzung so genannter PepSpot-Membranen. Sie basiert auf der Synthese von immobilisierten Peptiden auf aktivierten Membrane und kann z. B. zur Optimierung der Bindungseigenschaften bereits identifizierter Liganden durch Substitutionsanalyse verwendet werden. Nach der Inkubation der Membran mit dem zu untersuchenden Protein (hier Lck-SH3) und der anschließenden Detektion wird anhand der Spotfärbung eine Interaktion des Proteins mit den entsprechenden immobilisierten Peptiden nachgewiesen. Die Stärke der Spotintensitäten ist ein Maß für die Stärke der Bindung. Eine zusammenfassende Übersicht findet sich bei Reinecke U., Volkmer-Engert R., Schneider-Mergener J. Applikation of peptide arrays prepared by the SPOT-technology. Current Opinion in Biotechnology 2001, 12:59-64.
Für den Immunoassay wurde die PepSpot-Membran über Nacht in 20 ml Blocking Puffer geblockt. Nach einmaligem Waschen mit T-TBS für 10 min wurde die Membran für 3 h mit 0,5 µg/ml SH3 Protein in 20 ml Blocking Puffer inkubiert. Danach wurde die Membran dreimal für je 10 min mit T-TB S gewaschen. […] Die Spot-Intensitäten wurden mit der QuantityOne Software (Bio-Rad, München) ausgewertet Die Analyse der Spot-Intensitäten erfolgte nach Subtraktion des Hintergrundes. […]

T2 sequence (P06239 61-121 limits assumed): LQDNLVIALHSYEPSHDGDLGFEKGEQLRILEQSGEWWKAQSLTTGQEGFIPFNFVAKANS
Chain of Abl SH3 Domäne (P00519 61-121 limits assumed): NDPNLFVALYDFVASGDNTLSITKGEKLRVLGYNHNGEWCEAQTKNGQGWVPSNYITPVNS
Chain of PI3K SH3 Domäne (P27986 3-79 limits assumed): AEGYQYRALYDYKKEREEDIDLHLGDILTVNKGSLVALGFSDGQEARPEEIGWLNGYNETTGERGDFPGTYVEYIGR
Chain of Hck-SH3 (P08631 78-138 limits assumed): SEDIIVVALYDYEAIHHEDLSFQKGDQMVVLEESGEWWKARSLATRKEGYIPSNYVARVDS
T1 sequence (P06239 61-121 limits assumed): as the sequence (P06239 61-121 limits assumed) above

Sequence	relative Lck-SH3-Bindungsaktivität [1]	Kd [2] [µM]	Kd [3] [µM]	Kd [4] [µM]	Kd [5] [µM]	Bindung an die Lck-SH3 (Spot-Intensität) [6]
HTLQIPQHATSF	nicht bindende	–	–	–	–	–
HSKYPLPPLPSL [PD1]	–	> 300	0.23 ± 0.03	48.7 ± 1.65	112 ± 10.1	–
HSKRPLPPLPSL [PD1-R]	–	> 300	0.47 ± 0.02	23.1 ± 1.97	13.1 ± 0.48	–
HFKRPLPPLPSL [PD1-R(-5)F, substitution variant of PD1-R found on PepSpot membrane]	–	–	–	–	–	stärkste Bindung
